Test results as given in patent US5288725A, “Pyrroloquinoline Bradykinin antagonist” (Merck & Co., Inc., priority 1992, dated 1994).
Where no end group is shown, it is not given here.

Columns and labels:
[1] = target: cholinergic muscarinic receptors; assay: [3H] Quinuclidinyl benzilate binding, rat cerebral cortex membranes
[2] = target: T1, cholinergic muscarinic receptors (Cavia porcellus, UniProt H0VRN8); assay: [3H] Quinuclidinyl benzilate binding, guinea pig ileum membranes
T1 construct: guinea pig ileum membranes as described by Watson; from tissue; host or cells: guinea pig ileum membranes
T1 sequence (H0VRN8 1-466): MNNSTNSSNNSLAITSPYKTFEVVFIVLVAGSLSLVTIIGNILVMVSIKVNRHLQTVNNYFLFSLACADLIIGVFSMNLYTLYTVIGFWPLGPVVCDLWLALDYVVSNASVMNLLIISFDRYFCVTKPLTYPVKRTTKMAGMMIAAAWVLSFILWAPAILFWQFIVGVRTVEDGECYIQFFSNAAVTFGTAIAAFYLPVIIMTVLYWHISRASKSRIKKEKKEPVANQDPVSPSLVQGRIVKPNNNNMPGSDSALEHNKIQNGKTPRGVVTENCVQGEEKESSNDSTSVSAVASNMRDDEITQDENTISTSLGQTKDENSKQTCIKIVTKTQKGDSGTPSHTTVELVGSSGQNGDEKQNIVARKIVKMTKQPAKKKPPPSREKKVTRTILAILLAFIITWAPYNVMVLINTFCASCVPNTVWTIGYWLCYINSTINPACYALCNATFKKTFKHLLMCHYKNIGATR

[3] = target: T2, BK β2 receptor (Cavia porcellus, UniProt O70526); assay: [3H] BK radioligand binding, guinea pig ileum membranes; details: read-out: IC50, inhibition of [3H] BK binding
T2 construct: from tissue; host or cells: guinea pig ileum membranes
T2 sequence (O70526 1-372): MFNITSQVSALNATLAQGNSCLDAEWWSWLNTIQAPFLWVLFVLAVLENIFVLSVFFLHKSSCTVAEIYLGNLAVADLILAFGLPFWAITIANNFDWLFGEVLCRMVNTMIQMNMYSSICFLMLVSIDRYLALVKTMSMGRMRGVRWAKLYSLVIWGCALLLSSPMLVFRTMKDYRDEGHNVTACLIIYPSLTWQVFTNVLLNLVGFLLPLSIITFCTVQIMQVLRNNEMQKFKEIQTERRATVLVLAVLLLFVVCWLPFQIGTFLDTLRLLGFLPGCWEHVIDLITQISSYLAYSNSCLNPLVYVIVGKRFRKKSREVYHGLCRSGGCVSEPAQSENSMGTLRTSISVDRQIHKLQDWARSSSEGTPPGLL

[4] = target: α1-adrenergic receptors; assay: [3H] Prazosin radioligand binding, rat brain
[5] = test system: histamine H1 receptor; assay: H1 histaminergic receptor activity in rabbit aorta (agonist histamine)
Description: (§1) Antagonism of BK-β1 receptors was measured using spiral strips of rabbit thoracic aorta as described by Regoli et. al., Eur. J. Pharmacol., 127,219 (1986).
(§2) The α1 -adrenergic and H1 histaminergic receptor activity of compounds were also assessed using rabbit aorta with norepinephrine and histamine, respectively, as agonists.

[6] = test system: α1-adrenergic receptor; assay: α1-adrenergic receptor activity in rabbit aorta (agonist norepinephrine)
Description: as §1, §2

[7] = target: T3, BK-β1 receptors (Oryctolagus cuniculus, UniProt P48748); assay: Antagonism of BK-β1 receptors, spiral strips of rabbit thoracic aorta (agonist des Arg9-BK); details: Schild analysis
T3 construct: spiral strips of rabbit thoracic aorta; from tissue; host or cells: rabbit thoracic aorta spiral strips
T3 sequence (P48748 1-352): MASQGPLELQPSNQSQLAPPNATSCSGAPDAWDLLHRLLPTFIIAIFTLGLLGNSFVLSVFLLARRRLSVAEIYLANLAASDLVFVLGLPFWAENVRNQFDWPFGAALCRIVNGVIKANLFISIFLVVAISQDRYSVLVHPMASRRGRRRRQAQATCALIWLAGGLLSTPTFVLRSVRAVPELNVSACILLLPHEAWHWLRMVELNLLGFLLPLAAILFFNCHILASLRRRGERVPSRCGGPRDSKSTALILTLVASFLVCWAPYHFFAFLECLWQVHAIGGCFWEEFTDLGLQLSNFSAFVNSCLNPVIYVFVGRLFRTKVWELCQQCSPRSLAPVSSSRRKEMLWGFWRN
Description: as §1

[8] = target: T4, cholinergic muscarinic receptors (Rattus norvegicus, UniProt P10980); assay: [3H] Quinuclidinyl benzilate binding, rat cardiac membranes
T4 construct: rat cardiac membranes; from tissue; host or cells: rat cardiac membranes
T4 sequence (P10980 1-466): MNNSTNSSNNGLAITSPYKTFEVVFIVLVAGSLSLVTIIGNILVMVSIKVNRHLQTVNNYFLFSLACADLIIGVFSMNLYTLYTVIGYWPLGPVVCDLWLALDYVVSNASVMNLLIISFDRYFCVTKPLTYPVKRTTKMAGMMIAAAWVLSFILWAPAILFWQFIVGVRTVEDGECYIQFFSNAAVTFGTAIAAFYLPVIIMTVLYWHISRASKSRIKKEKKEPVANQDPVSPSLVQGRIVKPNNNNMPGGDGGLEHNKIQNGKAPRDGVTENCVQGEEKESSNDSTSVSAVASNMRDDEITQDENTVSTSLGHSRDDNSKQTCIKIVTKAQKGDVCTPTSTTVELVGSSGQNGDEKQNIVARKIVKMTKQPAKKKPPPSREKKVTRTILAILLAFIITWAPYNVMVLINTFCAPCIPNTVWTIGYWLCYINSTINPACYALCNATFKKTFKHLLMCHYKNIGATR

[9] = test system: bradykinin receptors of rat vas deferens; details: cited from earlier work
[10] = test system: β2 receptors; details: cited from earlier work
[11] = test system: β1 receptor; details: compared with BK; cited from earlier work

Molecule: CC(C)=CCNC(=N)NCCC[C@@H]1Nc2ccc(C(=O)OC/C(C)=C/CNC(=N)N)cc2[C@@H]2[C@H]1CCN2C(=N)NCC=C(C)C (relative stereo) [Compound I]
- IC50 [1]: 100 nM
- IC50 [2]: 100 nM
- IC50 [3]: 200 nM
- IC50 [4]: 60 nM
- mode of antagonism, histamine H1 receptor [5]: competitive antagonist
- pA2 value, histamine H1 receptor [5]: 5.9
- mode of antagonism, α1 receptor [6]: competitive antagonist
- pA2 value, α1 receptor [6]: 7.1
- mode of antagonism, β1 receptor [7]: competitive β1 receptor antagonist
- Kb ([7]; read-out: pA2 value, β1 receptor (converted)): 2000 nM
- IC50 [8]: 100 nM

Molecule: RPPGFSPFR [BK]
- musculotropic or postjunctional action ([9]; isolated rat vas deferens): contracted the smooth muscle generating an increased muscle tone
- neurogenic or presynaptic effect ([9]; isolated rat vas deferens, electrically driven twitches): potentiated the magnitude of the muscular response to the electrically driven twitches

Molecule: des-Arg^9 -bradykinin
- activity at β2 receptors [10]: relatively inactive
- β1 receptor agonist potency [11]: higher potency than BK
- pre- or postsynaptic BK like responses ([9]; rat vas deferens): inactive
